Data on 19 molecules can be found in patent US10508109B2 (priority 2015, dated 2019).

Where a name gives a salt, the structure may show the parent alone. Read-outs that look alike come from different tables or passages of the source.

The subject of one assay is A549. As to the kind of experiment: Cell-based assay, anti-proliferative activity (Cell Counting Kit-8, 72 hours). Conditions: Homo sapiens, read-out: A549 IC50. The procedure, abridged: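 Seed cells in 96-well format; add inhibitors; measure growth by CCK-8 at end of exposure; derive IC50.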
In the next assay the target is SUV39H2 (Homo sapiens (Human), UniProt Q9H5I1). As to the kind of experiment: biochemical. Format: biochemical. As to conditions: 3H-SAM 100 nM, H3 Histone Peptide 350 nM, room temperature 3 hours. The procedure, abridged:
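Scintillation proximity format: reactions were halted with streptavidin SPA beads (50 μg/well final) after 3 h at room temperature with enzyme dosed by lot-specific activity.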

[1] abbreviates: A549 cells, 72 hours exposure, Cell Counting Kit-8.

SUV39H2, sequence (Q9H5I1 whole entry): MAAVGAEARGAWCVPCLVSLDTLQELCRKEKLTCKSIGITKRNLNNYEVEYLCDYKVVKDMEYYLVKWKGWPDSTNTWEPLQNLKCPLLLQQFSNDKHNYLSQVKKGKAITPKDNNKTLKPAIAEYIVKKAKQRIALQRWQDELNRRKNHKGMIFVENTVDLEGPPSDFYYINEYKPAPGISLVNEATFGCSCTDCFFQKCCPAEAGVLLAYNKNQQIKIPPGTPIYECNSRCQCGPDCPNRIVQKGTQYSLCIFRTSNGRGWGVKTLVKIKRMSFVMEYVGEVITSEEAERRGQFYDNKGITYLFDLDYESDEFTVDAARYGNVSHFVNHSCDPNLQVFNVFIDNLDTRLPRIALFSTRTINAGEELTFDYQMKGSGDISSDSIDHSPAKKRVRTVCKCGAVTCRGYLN

For orientation: IC50 means the concentration at which inhibition is half-maximal. In the case of `COc1cc(OC)c(-c2cn3ccc(N[C@H]4CC[C@H](NCc5cccc(C)c5)CC4)cc3n2)cc1Cl` [Example 415, (1r,4r)-N^1-(2-(5-chloro-2,4-dimethoxyphenyl)imidazo[1,2-a]pyridin-7-yl)-N^4-(3-methylbenzyl)cyclohexane-1,4-diamine], the IC50 is 620 nM in the assay with A549 (setting [1]) and 98 nM on SUV39H2.

As to `COc1cc(OC)c(-c2cn3ccc(N4CC[C@H](NC(C)C5CCCCC5)C4)cc3n2)cc1Cl` (stereo partly drawn) [Example 416, (3S)-1-(2-(5-chloro-2,4-dimethoxyphenyl)imidazo[1,2-a]pyridin-7-yl)-N-(1-cyclohexylethyl)pyrrolidin-3-amine], the IC50 with A549 (setting [1]) was determined as 670 nM; against SUV39H2, 47.6 nM.

`COc1cc(OC)c(-c2cn3ccc(N4CCN(c5cnc(N6CCCC(N)C6)nc5)CC4)cc3n2)cc1Cl` (centres unmarked) [Example 417, 1-(5-(4-(2-(5-chloro-2,4-dimethoxyphenyl)imidazo[1,2-a]pyridin-7-yl)piperazin-1-yl)pyrimidin-2-yl)piperidin-3-amine]: the IC50 in the assay with A549 (setting [1]) was 620 nM; on SUV39H2, 9.91 nM.

As for `COc1cc(OC)c(-c2cn3ccc(N[C@H]4CC[C@@H](NCc5ccc(N(C)C)cc5)CC4)cc3n2)cc1Cl` [Example 418, cis-N^1-(2-(5-chloro-2,4-dimethoxyphenyl)imidazo[1,2-a]pyridin-7-yl)-N^4-(4-(dimethylamino)benzyl)cyclohexane-1,4-diamine bis(2,2,2-trifluoroacetate)], the IC50 was found to be 610 nM in the assay on A549 (setting [1]) and 41.3 nM against SUV39H2.

Consider `COc1cc(OC)c(-c2cn3ccc(N[C@H]4CC[C@H](NCc5ccc(N(C)C)cc5)CC4)cc3n2)cc1Cl` [Example 419, (1r,4r)-N^1-(2-(5-chloro-2,4-dimethoxyphenyl)imidazo[1,2-a]pyridin-7-yl)-N^4-(4-(dimethylamino)benzyl)cyclohexane-1,4-diamine], for which the IC50 in the assay on A549 (setting [1]) came out at 490 nM; at SUV39H2, 82 nM.

Take `COc1cc(OC)c(-c2cn3ccc(N[C@H]4CC[C@H](NCc5ccccc5O)CC4)cc3n2)cc1Cl` [Example 420, 2-((((1r,4r)-4-((2-(5-chloro-2,4-dimethoxyphenyl)imidazo[1,2-a]pyridin-7-yl)amino)cyclohexyl)amino)methyl)phenol]: the IC50 was 720 nM in the assay with A549 (setting [1]) and 64.6 nM against SUV39H2.

In the case of `COc1cc(OC)c(-c2cn3ccc(N4CCN(c5ncc(N)cn5)CC4)cc3n2)cc1Cl` [Example 422, 2-(4-(2-(5-chloro-2,4-dimethoxyphenyl)imidazo[1,2-a]pyridin-7-yl)piperazin-1-yl)pyrimidin-5-amine hydrochloride], the IC50 with A549 (A549, 72 h) turned out to be 720 nM; at SUV39H2, 11.2 nM.

With `COc1cc(OC)c(-c2cn3ccc(N[C@H]4CC[C@@H](NCC5CCN(C(=O)OC(C)(C)C)CC5)CC4)cc3n2)cc1Cl` [Example 423, tert-butyl 4-(((cis-4-((2-(5-chloro-2,4-dimethoxyphenyl)imidazo[1,2-a]pyridin-7-yl)amino)cyclohexyl)amino)methyl)piperidine-1-carboxylate], the values for the IC50 in the assay on A549 (setting [1]) and against SUV39H2 were 590 nM and 26.9 nM, respectively.

With `CNC1CCN(c2cc(N3CCN(c4ccn5cc(-c6cc(Cl)c(OC)cc6OC)nc5c4)CC3)ncn2)C1` (centres unmarked) [Example 424, 1-(6-(4-(2-(5-chloro-2,4-dimethoxyphenyl)imidazo[1,2-a]pyridin-7-yl)piperazin-1-yl)pyrimidin-4-yl)-N-methylpyrrolidin-3-amine], the IC50 in the assay with A549 (setting [1]) is 700 nM; against SUV39H2, 11.4 nM.

For `COc1cc(OC)c(-c2cn3ccc(N4CC[C@H](NC(C)C5CCN(C(=O)OC(C)(C)C)CC5)C4)cc3n2)cc1Cl` (stereo partly drawn) [Example 425, tert-butyl 4-(1-(((S)-1-(2-(5-chloro-2,4-dimethoxyphenyl)imidazo[1,2-a]pyridine-7-yl)pyrrolidin-3-yl)amino)ethyl)piperidine-1-carboxylate], the figures for the IC50 in the assay with A549 (setting [1]) and on SUV39H2 were 890 nM and 57.9 nM, respectively.

`CNC1CCN(c2ccnc(N3CCN(c4ccn5cc(-c6cc(Cl)c(OC)cc6OC)nc5c4)CC3)n2)CC1` [Example 426, 1-(2-(4-(2-(5-chloro-2,4-dimethoxyphenyl)imidazo[1,2-a]pyridin-7-yl)piperazin-1-yl)pyrimidin-4-yl)-N-methylpiperidin-4-amine]: the IC50 came to 670 nM in the assay on A549 (setting [1]) and 17.7 nM on SUV39H2.

As to `COc1cc(OC)c(-c2cn3ccc(N4CCN(c5ncc(N6CCOCC6)cn5)CC4)cc3n2)cc1Cl` [Example 427, 4-(2-(4-(2-(5-chloro-2,4-dimethoxyphenyl)imidazo[1,2-a]pyridin-7-yl)piperazin-1-yl)pyrimidin-5-yl)morpholine], the values for the IC50 with A549 (setting [1]) and at SUV39H2 were 820 nM and 25.1 nM, respectively.

With `CNC1CCCN(c2ncc(N3CCN(c4ccn5cc(-c6cc(Cl)c(OC)cc6OC)nc5c4)CC3)cn2)C1` (centres unmarked) [Example 428, 1-(5-(4-(2-(5-chloro-2,4-dimethoxyphenyl)imidazo[1,2-a]pyridin-7-yl)piperazin-1-yl)pyrimidin-2-yl)-N-methylpiperidin-3-amine], the IC50 in the assay on A549 (setting [1]) came out at 770 nM; against SUV39H2 it was 14.3 nM.

In the case of `COc1cc(OC)c(-c2cn3ccc(N4CCCN(C(C)=O)CC4)cc3n2)cc1Cl` [Example 429, 1-(4-(2-(5-chloro-2,4-dimethoxyphenyl)imidazo[1,2-a]pyridin-7-yl)-1,4-diazepan-1-yl)ethanone], the IC50 stood at 10000 nM in the assay with A549 (setting [1]) and 16.1 nM at SUV39H2.

With `COc1cc(OC)c(-c2cn3ccc(N4CCN(c5ncc(N6CCN(C)CC6)cn5)CC4)cc3n2)cc1Cl` [Example 430, 2-(5-chloro-2,4-dimethoxyphenyl)-7-(4-(5-(4-methylpiperazin-1-yl)pyrimidin-2-yl)piperazin-1-yl)imidazo[1,2-a]pyridine], the 50% inhibitory concentration (IC50) with A549 (setting [1]) is 950 nM; against SUV39H2, 13.7 nM.

On to `COc1cc(OC)c(-c2cn3ccc(N4CCN(c5nc(N)nc(N6CCCC6)n5)CC4)cc3n2)cc1Cl` [Example 431, 4-(4-(2-(5-chloro-2,4-dimethoxyphenyl)imidazo[1,2-a]pyridin-7-yl)piperazin-1-yl)-6-(pyrrolidin-1-yl)-1,3,5-triazin-2-amine], for which the IC50 in the assay with A549 (setting [1]) was 760 nM; against SUV39H2, 88.4 nM.

For `COc1cc(OCCCN(C)C)c(-c2cn3ccc(N4CC[C@H](N)C4)cc3n2)cc1Cl` [Example 432, (S)-1-(2-(5-chloro-2-(3-(dimethylamino)propoxy)-4-methoxyphenyl)imidazo[1,2-a]pyridin-7-yl)pyrrolidin-3-amine], the results for the IC50 in the assay on A549 (setting [1]) and against SUV39H2 were 710 nM and 31.8 nM, respectively.

For `COc1cc(OC)c(-c2cn3ccc(N[C@H]4C[C@H]5CC[C@@H](C4)N5Cc4ccccc4)cc3n2)cc1Cl` [Example 433, N-((1R,3r,5S)-8-benzyl-8-azabicyclo[3.2.1]octan-3-yl)-2-(5-chloro-2,4-dimethoxyphenyl)imidazo[1,2-a]pyridin-7-amine], the IC50 in the assay on A549 (setting [1]) is 820 nM; at SUV39H2, 57.6 nM.

For the molecule `COc1cc(OC)c(-c2cn3ccc(N4CCCN(CC5CCCCC5)CC4)cc3n2)cc1Cl` [Example 435, 2-(5-chloro-2,4-dimethoxyphenyl)-7-(4-(cyclohexylmethyl)-1,4-diazepan-1-yl)imidazo[1,2-a]pyridine], the IC50 in the assay with A549 (setting [1]) worked out at 650 nM; against SUV39H2, 6.46 nM.
